Measured values taken from patent US20230183193A1, “4-DIFLUOROMETHYL BENZOYL AMIDES WITH HERBICIDAL ACTION” (BAYER CROPSCIENCE AKTIENGESELLSCHAFT, priority 2017, published 2023).

Key:
Format in all cases: in vivo
Setaria viridis [1] = assay: Pre-emergence herbicidal action, SETVI; settings: dosage 320 g/ha, scored visually after 3 weeks vs untreated controls
Procedure, shortened: (§1)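 Percent herbicidal activity rated by eye 3 weeks after pre-emergence soil-surface application, compared with untreated pots. Seeds sat under sandy loam; sprays carried 0.2% wetting agent.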

ECHCG = assay: Post-emergence herbicidal action, ECHCG; settings: 80 g/ha, Table C
Procedure, shortened: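 Weed and crop plants grown in sandy loam in the greenhouse, treated at the one-leaf stage 2–3 weeks after sowing. Damage scored visually after about 3 weeks vs untreated controls (0% = control, 100% = dead).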

Cyperus serotinus = assay: Pre-emergence herbicidal action, CYPES; settings: dosage 320 g/ha, scored visually after 3 weeks vs untreated controls
Procedure, shortened: as §1

Setaria viridis [2] = assay: Post-emergence herbicidal action, SETVI; settings: 80 g/ha, Table C
Procedure, shortened: (§2)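 Post-emergence spray; one-leaf stage (2–3 wk after sowing), sandy loam, greenhouse. WP/EC in water, 600 to […], +0.2% wetting agent. Visual % damage vs untreated at ~3 wk; 100% = plants dead.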

Avena fatua [3] = assay: Post-emergence herbicidal action, AVEFA; settings: 80 g/ha, Table C
Procedure, shortened: as §2

Matricaria inodora = assay: Pre-emergence herbicidal action, MATIN; settings: dosage 320 g/ha, scored visually after 3 weeks vs untreated controls
Procedure, shortened: as §1

Viola tricolor [4] = assay: Pre-emergence herbicidal action, VIOTR; settings: dosage 320 g/ha, scored visually after 3 weeks vs untreated controls
Procedure, shortened: as §1

Abutilon theophrasti [5] = assay: Post-emergence herbicidal action, ABUTH; settings: 80 g/ha, Table D
Procedure, shortened: as §2

Stellaria media [6] = assay: Pre-emergence herbicidal action, STEME; settings: dosage 320 g/ha, scored visually after 3 weeks vs untreated controls
Procedure, shortened: as §1

Alopecurus myosuroides [7] = assay: Pre-emergence herbicidal action, ALOMY; settings: dosage 320 g/ha, scored visually after 3 weeks vs untreated controls
Procedure, shortened: as §1

Pharbitis purpureum = assay: Post-emergence herbicidal action, PHBPU; settings: 80 g/ha, Table D
Procedure, shortened: as §2

Alopecurus myosuroides [8] = assay: Post-emergence herbicidal action, ALOMY; settings: 80 g/ha, Table C
Procedure, shortened: as §2

Stellaria media [9] = assay: Post-emergence herbicidal action, STEME; settings: 80 g/ha, Table D
Procedure, shortened: as §2

Amaranthus retroflexus [10] = assay: Pre-emergence herbicidal action, AMARE; settings: dosage 320 g/ha, scored visually after 3 weeks vs untreated controls
Procedure, shortened: as §1

Viola tricolor [11] = assay: Post-emergence herbicidal action, VIOTR; settings: 80 g/ha, Table D
Procedure, shortened: as §2

Amaranthus retroflexus [12] = assay: Post-emergence herbicidal action, AMARE; settings: 80 g/ha, Table D
Procedure, shortened: as §2

Abutilon theophrasti [13] = assay: Pre-emergence herbicidal action, ABUTH; settings: dosage 320 g/ha, scored visually after 3 weeks vs untreated controls
Procedure, shortened: as §1

Avena fatua [14] = assay: Pre-emergence herbicidal action, AVEFA; settings: dosage 320 g/ha, scored visually after 3 weeks vs untreated controls
Procedure, shortened: as §1

| SMILES | herbicidal activity SETVI (Setaria viridis [1]) [%] | Herbicidal activity ECHCG (ECHCG) [%] | herbicidal activity CYPES (Cyperus serotinus) [%] | herbicidal activity SETVI (Setaria viridis [2]) [%] | herbicidal activity AVEFA (Avena fatua [3]) [%] | herbicidal activity MATIN (Matricaria inodora) [%] | herbicidal activity VIOTR (Viola tricolor [4]) [%] | herbicidal activity ABUTH (Abutilon theophrasti [5]) [%] | Herbicidal activity STEME (Stellaria media [6]) [%] | herbicidal activity ALOMY (Alopecurus myosuroides [7]) [%] | Herbicidal activity PHBPU (Pharbitis purpureum) [%] | herbicidal activity ALOMY (Alopecurus myosuroides [8]) [%] | Herbicidal activity STEME (Stellaria media [9]) [%] | herbicidal activity AMARE (Amaranthus retroflexus [10]) [%] | herbicidal activity VIOTR (Viola tricolor [11]) [%] | herbicidal activity AMARE (Amaranthus retroflexus [12]) [%] | herbicidal activity ABUTH (Abutilon theophrasti [13]) [%] | herbicidal activity AVEFA (Avena fatua [14]) [%] |
| --- | --- | --- | --- | --- | --- | --- | --- | --- | --- | --- | --- | --- | --- | --- | --- | --- | --- | --- |
| CCn1nnnc1NC(=O)c1ccc(C(F)F)c([S+]([O-])CC)c1C (stereo not drawn) [Example 2-5] | 100 | 100 | 80 | 100 | 100 | 100 | 100 | 100 | 90 | 100 | 90 | 90 | 100 | 100 | 100 | 100 | 100 | 90 |
| CCS(=O)(=O)c1c(C(F)F)ccc(C(=O)Nc2nnnn2C)c1Cl [Example 1-54] | 100 | 90 | 100 | 100 | 100 | 100 | 100 | 100 | 100 | 100 | 100 | 90 | 100 | 100 | 100 | 100 | 100 | 100 |
| CCSc1c(C(F)F)ccc(C(=O)Nc2nnnn2C)c1C [Example 1-4] | 100 | 100 | 80 | 100 | 100 | 100 | 100 | 100 | 100 | 100 | 100 | 90 | 100 | 100 | 100 | 100 | 100 | 100 |
| Cn1nnnc1NC(=O)c1ccc(C(F)F)c([S+](C)[O-])c1F (stereo not drawn) [Example 1-38] | 100 | 100 | 90 | 100 | 90 | 100 | 100 | 100 | 100 | 100 | 90 | 90 | 100 | 100 | 100 | 90 | 100 | 100 |
| CCc1c(C(=O)Nc2nnnn2CC)ccc(C(F)F)c1S(=O)(=O)CC [Example 2-18] | 100 | 90 | 90 | 90 | 100 | 100 | 100 | 100 | 100 | 100 | 100 | 80 | 100 | 100 | 100 | 100 | 100 | 100 |
| CCSc1c(C(F)F)ccc(C(=O)Nc2nnnn2CC)c1Br [Example 2-64] | 100 | 100 | 100 | 100 | 100 | 100 | 100 | 100 | 100 | 100 | 100 | 100 | 100 | 100 | 100 | 100 | 100 | 100 |
| CC[S+]([O-])c1c(C(F)F)ccc(C(=O)Nc2nnnn2C)c1Cl (stereo not drawn) [Example 1-53] | 100 | 90 | 100 | 100 | 100 | 100 | 100 | 100 | 100 | 100 | 100 | 100 | 100 | 100 | 100 | 100 | 100 | 100 |
| CCc1c(C(=O)Nc2nnnn2CC)ccc(C(F)F)c1S(C)(=O)=O [Example 2-15] | 100 | 90 | 100 | 100 | 100 | 100 | 100 | 100 | 100 | 100 | 80 | 80 | 100 | 100 | 100 | 100 | 100 | 100 |
